Reference: PubChem BioAssay (NCI)
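Exposure lasted 48 hours, with cells grown in 96-well plates and compounds tested at five concentrations. Here, GI50 denotes the concentration required for 50% inhibition of growth. TGI marks complete inhibition of growth.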

Tests used:
Test in all cases: growth of human tumour cells (NCI), 48 h
HCT-116 colon = test system: HCT-116 colon
HCT-15 colon = test system: HCT-15 colon
HL-60(TB) leukemia = test system: HL-60(TB) leukemia
HS 578T breast = test system: HS 578T breast
NCI-H460 lung = test system: NCI-H460 lung
SK-MEL-28 melanoma = test system: SK-MEL-28 melanoma
SNB-19 CNS = test system: SNB-19 CNS
UACC-62 melanoma = test system: UACC-62 melanoma
SNB-75 CNS = test system: SNB-75 CNS
SR leukemia = test system: SR leukemia

Compound	TGI (HCT-116 colon)	TGI (HCT-15 colon)	TGI (HL-60(TB) leukemia)	TGI (HS 578T breast)	TGI (NCI-H460 lung)	TGI (SK-MEL-28 melanoma)	TGI (SNB-19 CNS)	TGI (UACC-62 melanoma)	TGI (SNB-75 CNS)	TGI (SR leukemia)	GI50 (HCT-116 colon)	GI50 (HCT-15 colon)	GI50 (HL-60(TB) leukemia)	GI50 (HS 578T breast)	GI50 (NCI-H460 lung)	GI50 (SK-MEL-28 melanoma)	GI50 (SNB-19 CNS)	GI50 (SNB-75 CNS)	GI50 (SR leukemia)	GI50 (UACC-62 melanoma)
CNC(C)C(O)c1ccc2oc3cc(=O)c4ccccc4c-3nc2c1 (stereo not drawn)	21.8 µM	> 100 µM	> 100 µM	8.48 µM	61.4 µM	27.6 µM	> 100 µM	14.3 µM												
C(=Nc1ccc2c(c1)Cc1ccccc1-2)c1ccccn1	> 100 µM	> 100 µM		> 100 µM	> 100 µM	> 100 µM	> 100 µM	> 100 µM	> 100 µM	> 100 µM										
O=c1cc(CF)[nH]c(=S)[nH]1	> 100 µM	> 100 µM		> 100 µM	> 100 µM	> 100 µM	> 100 µM	> 100 µM	> 100 µM	> 100 µM										
COc1ccc(/C=N/n2cnc3c(c2=O)SC(=C(C#N)C#N)N3c2ccccc2)cc1	> 100 µM		> 100 µM		> 100 µM	> 100 µM	> 100 µM	> 100 µM	72.4 µM	> 100 µM										
N[C@H](Cc1ccc2oc3cc(=O)c4ccccc4c-3nc2c1)C(=O)O	> 100 µM	> 100 µM	> 100 µM	> 100 µM	> 100 µM	> 100 µM	> 100 µM	62 µM	> 100 µM	> 100 µM										
CCCn1cnc2c(SCc3ccc(Cl)cc3)nc(N)nc21	44.2 µM	> 100 µM	48.7 µM	> 100 µM	40.6 µM	83.4 µM	> 100 µM	52.8 µM	88.7 µM	34.8 µM										
O=C(N[C@@H](Cc1coc2ccccc12)B(O)O)[C@@H]1C[C@H]2CC[C@@H]1O2	27.1 µM	84.9 µM	> 100 µM	66.6 µM	> 100 µM	> 100 µM	> 100 µM	55.2 µM	38.2 µM	> 100 µM	3.25 µM	4.54 µM	3.05 µM	3.81 µM	30.7 µM	4.5 µM	4.98 µM	2.78 µM	1.26 µM	5.29 µM
CCCO[C@@H]1[C@@H](OC(C)=O)[C@@H](OC(C)=O)C(C)(C)/C=C/[C@H](C)C(=O)[C@@]2(OC(C)=O)C[C@@](C)(OC(C)=O)[C@H](OC(C)=O)[C@@H]2[C@H]2OC(=O)CC[C@@]12OC(=O)c1ccccc1	> 25 µM	> 25 µM	> 25 µM	> 25 µM	> 25 µM		> 25 µM	> 25 µM	> 25 µM											
COc1ccc(C2COc3c(ccc(O)c3C)C2)cc1OC (stereo not drawn)	153 µM	> 200 µM	140 µM		> 193 µM	> 196 µM	> 200 µM	> 200 µM	110 µM											
CN(C)CCNC(=O)c1cccc2[nH]c(-c3ccccn3)nc12	> 65.2 µM	> 100 µM	> 78.7 µM		> 58.4 µM	> 58 µM	> 100 µM	42.7 µM	92.8 µM											
Nc1nc(SCc2ccccc2Cl)c2[nH]cnc2n1	> 100 µM	> 100 µM	> 100 µM		> 100 µM	> 100 µM	> 100 µM	> 100 µM		> 100 µM										
C/C(=N\NC(=S)N1CCCC1)c1nc2ncccc2[nH]1	18.1 µM	> 100 µM	> 100 µM	> 100 µM	1.68 µM	28.2 µM	17.1 µM	11.2 µM	> 100 µM	> 100 µM										
Cc1nc2ccc(S(=O)(=O)Nc3nccs3)cc2c(=O)n1NS(=O)(=O)c1nccs1		> 100 µM	> 100 µM	> 100 µM	> 100 µM	> 100 µM	> 100 µM	> 100 µM	> 100 µM											
C=CCCC1(C)CCCNC1=S (stereo not drawn)	> 100 µM	> 100 µM	> 100 µM		> 100 µM	> 100 µM	> 100 µM	> 100 µM	> 100 µM	> 100 µM										
COc1ccc2c(c1)c(-c1nc(-c3c[nH]c4ncccc34)cs1)cn2CCCCN1CCCCC1			3.54 µM	4.38 µM	3.5 µM				2.68 µM				1.72 µM	1.66 µM	1.81 µM			1.27 µM		
CCCCC1C=Cn2c(=O)oc3c(OC(C)C)c(C)c(O)c1c32 (stereo not drawn)	7.07 µM	12.4 µM	1.88 µM	14.3 µM	8.39 µM	8.33 µM	13.3 µM	2.97 µM	4.83 µM	6.17 µM										
O=C1c2ccccc2OCC12OC21C=CC(Cl)=CC1 (stereo not drawn)	43.6 µM	86.5 µM	37.3 µM		47.9 µM	67.4 µM	80.3 µM	> 100 µM		17.5 µM										
CCC(=O)OCN(C)c1nc(N(C)COC(=O)CC)nc(N(C)COC(=O)CC)n1	64 µM	56 µM		> 100 µM	> 100 µM	> 100 µM	> 100 µM	35.8 µM	> 100 µM	71 µM										
